Data on one molecule can be found in patent publication US6420563B1, “Small molecule modulators of G protein-coupled receptor six” (Arena Pharmaceuticals, Inc., priority 1998, dated 2002).

Molecules are shown by their SMILES.

A short description of the test: Food/water intake and body weight in 24-hour food-deprived rats, IP administration. In kind it is in vivo, rat. To be noted: for body weight gain: vehicle 20 g. How it is done:
An in vivo assessment of GPR6 inverse agonist was accomplished by determining the effects of ARE112 on food intake after food deprivation in rats. Food deprivation was used to induce higher than normal eating behavior (e.g., controlvehicle-treated animals were hyperphagic).
The animals (male Sprague-Dawley rats were used for the following experiments) were food deprived for 24 hr, and then injected intraperitoneally (IP) with 0, 6.75, 13.5, 27 and 54 mg/kg of compound ARE112. After 30 min, rats were introduced to standard rat chow pellets and observed thereafter for a period of 6.5 hours post-injection.

For `O=C(N=C1SSC2=NCCN21)c1cccs1` [ARE112, N-(5,6-dihydro-3H-imidazo[2,1-c]-1,2,4-dithiazol-3-ylidene)-thiophen-2-carboxamide], the body weight gain is reported as 11 g (13.5 mg/kg IP), “no weight gain” (27 mg/kg IP) and “no weight gain” (54 mg/kg IP). Besides, the “decrease in water intake” value (54 mg/kg IP) came out at 5 fold. The “food consumed (cumulative food intake)” value is 3 g (54 mg/kg IP, 1.5 hours after injection, vehicle about 6 grams) and 4 g (54 mg/kg IP, 6.5 hours post-injection, vehicle up to 14 g).
